Assay results published in patent US10047057B2, “Functionalized tyrosine kinase inhibitors modified with precious metal electrophiles and methods associated therewith” (WAKE FOREST UNIVERSITY, priority 2014, dated 2018).

Experiments:
NCI-H460 cells = assay: Cell proliferation assay (Celltiter 96), NCI-H460; details: Homo sapiens, NCI-H460, read-out: IC50 NCI-H460
Description: (§1) The cell line NCI-H460 is a model of a large-cell carcinoma and is characterized by wild-type EGFR-TK. By contrast, NCI-H1975 adenocarcinoma cells harbor a point mutation (L858R) in exon 21 as well as a secondary mutation (T790M) at the bottom of the hydrophobic ATP binding pocket.
(§2) The human non-small cell lung cancer cell lines, NCI-H460 (large cell) and NCI-H1975 (adenocarcinoma), were obtained from the American Type Culture Collection (Rockville, Md., USA). […] Cells were incubated at a constant temperature at 37° C. in a humidified atmosphere containing 5% CO2 and were subcultured every 2 to 3 days in order to maintain cells in logarithmic growth. The cytotoxicity studies were carried out according to a standard protocol using the Celltiter 96 aqueous nonradioactive cell proliferation assay kit (Promega, Madison, Wis.). Stock solutions (10 mM) of all drugs were made in DMF and serially diluted with media prior to incubation with cancer cells. IC50 values were calculated from dose-response curves using sigmoidal curve fits in GraphPad Prism (GraphPad Software, La Jolla, Calif.).

NCI-H1975 cells = assay: Cell proliferation assay (Celltiter 96), NCI-H1975; details: read-out: IC50 NCI-H1975; Table 1; IC50 ± S.D., two experiments in triplicate; L858R/T790M EGFR
Description: as §1, §2

Structure (SMILES): CCOc1cc2ncnc(Nc3ccc(F)c(Cl)c3)c2cc1N(C)C(=S)NC [Compound 7, 1-(4-((3-Chloro-4-fluorophenyl)amino)-7-ethoxyquinazolin-6-yl)-1,3-dimethylthiourea]
- IC50 (NCI-H460 cells): 36 ± 4.4 µM
- IC50 (NCI-H1975 cells): 51.7 ± 1.1 µM
